Measured values from patent publication US7037644B1, “Means and methods for monitoring non-nucleoside reverse transcriptase inhibitor antiretroviral therapy and guiding therapeutic decisions in the treatment of HIV/AIDS” (ViroLogic, Inc., priority 1998, dated 2006).
Entries after “also recorded” stand apart in the source; their conditions may differ.

What was measured:
[1] = tested on: patient 780 virus (RT K103N, P225H); assay: Phenotypic susceptibility assay (patient virus); format: cell-based, HIV; settings: patient 780, FIGS. 8D-8F
Excerpt: FIGS. 8D, 8E, and 8F. Phenotypic Drug Susceptibility and Resistance Profile: Patients 780. This is a second example of the third pattern of NNRTI susceptibility/resistance. […] This pattern is characterized by a larger reduction of nevirapine suseptibility compared to the reduction of delavirdine susceptibility.
(§1) The resistance test vectors containing a functional luciferase gene cassette were constructed and host cells were transfected with the resistance test vector DNA. […] The IC50 values were determined by plotting percent drug inhibition vs. log10 drug concentration.
(§2) Host cells were seeded in 10-cm-diameter dishes and were transfected several days after plating with resistance test vector plasmid DNA and the envelope expression vector. […] HIV capsid protein (p24) levels in the harvested cell culture media were determined by an EIA method as described by the manufacturer (SIAC; Frederick, Md.). […] The inhibitory effect of the drug was determined using the following equation: % luciferase inhibition=1−(RLUluc [drug]÷RLUluc)×100 where RLUluc [drug] is the relative light unit of luciferase activity in infected cells in the presence of drug and RLUluc is the Relative Light Unit of luciferase activity in infected cells in the absence of drug. […]

[2] = tested on: RTV-1058 clone 10 (RT L100I, K103N, Y188L); assay: Phenotypic susceptibility assay (patient RTV clone); format: cell-based, HIV-1
Excerpt: (§3) The resistance test vectors containing a functional luciferase gene cassette were constructed and host cells were transfected with the resistance test vector DNA. The resistant test vectors contained patient-derived reverse transcriptase and protease sequences that were either susceptible or resistant to the antiretroviral agents, such as nucleoside reverse transcriptase inhibitors, non-nucleoside reverse transcriptase inhibitors and protease inhibitors. The resistance test vector viral particles produced by transfecting the resistance test vector DNA into host cells, either in the presence or absence of protease inhibitors, were used to infect target host cells grown either in the absence of NRTI or NNRTI or in the presence of increasing concentrations of the drug. The amount of luciferase activity produced in infected target host cells in the presence of drug was compared to the amount of luciferase produced in infected target host cells in the absence of drug. Drug resistance was measured as the amount of drug required to inhibit by 50% the luciferase activity detected in the absence of drug (inhibitory concentration 50%, IC50). The IC50 values were determined by plotting percent drug inhibition vs. log10 drug concentration.
(§4) Host cells were seeded in 10-cm-diameter dishes and were transfected several days after plating with resistance test vector plasmid DNA and the envelope expression vector. Transfections were performed using a calcium-phosphate precipitation procedure. The cell culture media containing the DNA precipitate was replaced with fresh medium, from one to 24 hours, after transfection. Cell culture media containing resistance test vector viral particles was harvested one to four days after transfection and was passed through a […] filter before being stored at […]. HIV capsid protein (p24) levels in the harvested cell culture media were determined by an EIA method as described by the manufacturer (SIAC; Frederick, Md.). Before infection, target cells (293 and 293/T) were plated in cell culture media. Control infections were performed using cell culture media from mock transfections (no DNA) or transfections containing the resistance test vector plasmid DNA without the envelope expression plasmid. One to three or more days after infection the media was removed and cell lysis buffer (Promega) was added to each well. Cell lysates were assayed for luciferase activity (FIG. 3). The inhibitory effect of the drug was determined using the following equation: % luciferase inhibition=1−(RLUluc [drug]÷RLUluc)×100 where RLUluc [drug] is the relative light unit of luciferase activity in infected cells in the presence of drug and RLUluc is the Relative Light Unit of luciferase activity in infected cells in the absence of drug. IC50 values were obtained from the sigmoidal curves that were generated from the data by plotting the percent inhibition of luciferase activity vs. the log10 drug concentration. The drug inhibition curves are shown in (FIG. 3).
A resistance test vector was constructed as described in Example 1 from a patient sample designated 98-1058. This patient had been previously treated with ddI, d4T, AZT, 3TC, ddC and abacavir (NRTIs), indinavir and amprenavir (PRIs) and nevirapine (an NNRTI). Isolation of viral RNA and RT/PCR was used to generate a patient derived segment that comprised viral sequences coding for all of RP and aa 1-313 of RT. The PDS was inserted into an indicator gene viral vector to generate a resistance test vector designated RTV-1058. Individual clones of RTV-1058 were selected and were then tested in a phenotypic assay to determine accurately and quantitatively the level of susceptibility to a panel of anti-retroviral drugs. The panel of antiretroviral drugs comprised members of the classes known as NRTIs (AZT, 3TC, d4T, kkI an ddC), NNRTIs (delavirdine and nevirapine), an PRIs (indinavir, nelfinavir, ritonavir, and saquinavir). […]

[3] = tested on: patient 487 virus (RT M184V, K103N); assay: Phenotypic susceptibility assay (patient virus); format: cell-based, HIV; settings: patient 487, FIG. 4
Excerpt: Phenotypic drug susceptibility and resistance profile: patient 487. […] This is an example of the first pattern of NNRTI susceptibility/resistance.
as §1, with “DNA. The resistant test vectors contained patient-derived reverse transcriptase and protease sequences that were either susceptible or resistant to the antiretroviral agents, such as nucleoside reverse transcriptase inhibitors, non-nucleoside reverse transcriptase inhibitors and protease inhibitors.” for “DNA.”
as §2

Y181 C mutation variant = settings: Y181C selected during nevirapine monotherapy; cited from earlier work
[4] = tested on: RTV-964, patient 98-964 (RT Y181I); assay: Phenotypic susceptibility assay (patient RTV); format: cell-based, HIV-1; settings: patient RTV pool
Description: as §1, with “DNA. The resistant test vectors contained patient-derived reverse transcriptase and protease sequences that were either susceptible or resistant to the antiretroviral agents, such as nucleoside reverse transcriptase inhibitors, non-nucleoside reverse transcriptase inhibitors and protease inhibitors.” for “DNA.”
as §2

[5] = tested on: RTV-268, patient 97-268 (RT M41L, D67N, M184V, L210W, T215Y, K219Q, P236L); assay: Phenotypic susceptibility assay (patient RTV); format: cell-based, HIV-1; settings: patient virus RTV-268 vs reference virus
Excerpt: as §3, §4
A resistance test vector was constructed as described in Example 1 from a patient sample designated 97-268. This patient had been treated with AZT and 3TC (NRTIs), indinavir and saquinavir (PRIs) and delavirdine (an NNRTI) for periods varying from 1 month to 2 years. Isolation of viral RNA and RT/PCR was used to generate a patient derived segment that comprised viral sequences coding for all of PR and amino acids 1-313 of RT. The patient derived segment was inserted into a indicator gene viral vector to generate a resistance test vector designated RTV-268. RTV-268 was then tested using the phenotypic susceptibility assay to determine accurately and quantitatively the level of susceptibility to a panel of anti-retroviral drugs. This panel of anti-retroviral drugs comprised members of the classes known as NRTIs (AZT, 3TC, d4T, ddI and ddC), NNRTIs (delavirdine and nevirapine), and PRIs (indinavir, nelfinavir, ritonavir, and saquinavir). An IC50 was determined for each drug tested. […]

Compound	change in susceptibility [1]	loss of susceptibility (fold, IC50) [2]	change in susceptibility [3]	reduction in sensitivity (Y181 C mutation variant)	decrease in susceptibility (fold, IC50) [4]	change in susceptibility [5]
CC(C)Nc1cccnc1N1CCN(C(=O)c2cc3cc(NS(C)(=O)=O)ccc3[nH]2)CC1 [delavirdine]	reduced susceptibility	greater than 250 fold	increased resistance			
Cc1ccnc2c1NC(=O)c1cccnc1N2C1CC1 [nevirapine]	reduced susceptibility	greater than 800 fold	increased resistance	100 fold	750 fold	no change; also recorded: same as wild type
